Active and inactive are the calls of the source. How the calls were made is not given here.

TD50 and carcinogen call data for 5 compounds are collected here from PubChem BioAssay AID1745844 (Carcinogenic Potency Database (CPDB), 2022).

In the data set the test system is rodent lifetime carcinogenesis bioassay, tumor incidence TD50. Kind of data set: carcinogenic potency in animals, long-term in vivo studies, CPDB compilation (AID 1745844).

As usually defined, the TD50 is the 50% point of the dose-response relation for the toxic effect studied. Take `NN`: the TD50 by setting is: (hamster, strain Syrian Golden, males, inhaled, site: colon, lesion: adenocarcinoma, dosed 52 weeks, study length 104 weeks) 14 mg/kg/day; (hamster, strain Syrian Golden, males, inhaled, site: colon, lesion: leiomyoma, dosed 52 weeks, study length 104 weeks) 70.5 mg/kg/day; (hamster, strain Syrian Golden, males, inhaled, site: colon, lesion: papilloma, dosed 52 weeks, study length 104 weeks) 70.5 mg/kg/day; (hamster, strain Syrian Golden, males, inhaled, site: nasal cavity, lesion: adenomatous polyp, dosed 52 weeks, study length 104 weeks) 4.16 mg/kg/day; (hamster, strain Syrian Golden, males, inhaled, site: stomach, lesion: basal-cell carcinoma, dosed 52 weeks, study length 104 weeks) 37.6 mg/kg/day; (hamster, strain Syrian Golden, males, inhaled, site: thyroid gland, lesion: parafollicular-cell adenoma, dosed 52 weeks, study length 104 weeks) 17.5 mg/kg/day. For the same compound, the TD50 was 58.5 mg/kg/day (inactive) (mouse, strain Bor:NMRI, SPF-bred NMRI, females, in drinking water, site: any site (literature study), lesion: benign tumor, dosed 104 weeks, study length 104 weeks); 7.78 mg/kg/day (mouse, strain C57BL/6, females, inhaled, site: lung, lesion: adenoma, dosed 52 weeks, study length 117 weeks); 5.67 mg/kg/day (mouse, strain Swiss, females, by gavage, site: lung, lesion: one or several types, types not named, dosed 40 weeks, study length 55 weeks); 9 mg/kg/day (mouse, strain Swiss, females, in drinking water, site: lung, lesion: adenocarcinoma, dosed 113 weeks, study length 113 weeks); 2.81 mg/kg/day (mouse, strain Swiss, females, in drinking water, site: lung, lesion: adenoma, dosed 113 weeks, study length 113 weeks); 2.54 mg/kg/day (mouse, strain Swiss, females, in drinking water, site: lung, lesion: several types, types named in the paper, dosed 113 weeks, study length 113 weeks). Also, the TD50 is 9.52 mg/kg/day (mouse, strain Swiss, males, in drinking water, site: all sites, lesion: malignant lymphoma, dosed 113 weeks, study length 113 weeks); 29.8 mg/kg/day (mouse, strain Swiss, males, in drinking water, site: liver, lesion: several types, types named in the paper, dosed 113 weeks, study length 113 weeks); 6.19 mg/kg/day (mouse, strain Swiss, males, in drinking water, site: lung, lesion: adenocarcinoma, dosed 113 weeks, study length 113 weeks); 2.77 mg/kg/day (mouse, strain Swiss, males, in drinking water, site: lung, lesion: adenoma, dosed 113 weeks, study length 113 weeks); 2.2 mg/kg/day (mouse, strain Swiss, males, in drinking water, site: lung, lesion: several types, types named in the paper, dosed 113 weeks, study length 113 weeks); 26.4 mg/kg/day (rat, strain Fischer 344, females, inhaled, site: lung, lesion: bronchiolar adenoma, dosed 52 weeks, study length 130 weeks). Moreover, the TD50 was 9.2 mg/kg/day (rat, strain Fischer 344, females, inhaled, site: nasal cavity, lesion: adenocarcinoma, dosed 52 weeks, study length 130 weeks); 0.758 mg/kg/day (rat, strain Fischer 344, females, inhaled, site: nasal cavity, lesion: adenomatous polyp, dosed 52 weeks, study length 130 weeks); 13.1 mg/kg/day (rat, strain Fischer 344, females, inhaled, site: nasal cavity, lesion: squamous-cell carcinoma, dosed 52 weeks, study length 130 weeks); 8.72 mg/kg/day (rat, strain Fischer 344, females, inhaled, site: nasal cavity, lesion: squamous-cell papilloma, dosed 52 weeks, study length 130 weeks); 6.56 mg/kg/day (rat, strain Fischer 344, females, inhaled, site: nasal cavity, lesion: villous polyp, dosed 52 weeks, study length 130 weeks); 6.1 mg/kg/day (rat, strain Fischer 344, males, inhaled, site: lung, lesion: bronchiolar adenoma, dosed 52 weeks, study length 130 weeks). Besides, the TD50 by setting is: (rat, strain Fischer 344, males, inhaled, site: nasal cavity, lesion: adenomatous polyp, dosed 52 weeks, study length 130 weeks) 0.194 mg/kg/day; (rat, strain Fischer 344, males, inhaled, site: nasal cavity, lesion: squamous-cell carcinoma, dosed 52 weeks, study length 130 weeks) 6.12 mg/kg/day; (rat, strain Fischer 344, males, inhaled, site: nasal cavity, lesion: squamous-cell papilloma, dosed 52 weeks, study length 130 weeks) 6.1 mg/kg/day; (rat, strain Fischer 344, males, inhaled, site: nasal cavity, lesion: villous polyp, dosed 52 weeks, study length 130 weeks) 1.36 mg/kg/day; (rat, strain Fischer 344, males, inhaled, site: thyroid gland, lesion: carcinoma, dosed 52 weeks, study length 130 weeks) 1.6 mg/kg/day; (rat, strain Wistar, females, in drinking water, site: liver, lesion: hepatocellular carcinoma, dosed 157 weeks, study length 157 weeks) 129 mg/kg/day. Besides, the TD50 by setting is: (rat, strain Wistar, females, in drinking water, site: liver, lesion: several types, types named in the paper, dosed 157 weeks, study length 157 weeks) 41.6 mg/kg/day; (rat, strain Wistar, females, in drinking water, site: mammary gland, lesion: malignant tumor, dosed 157 weeks, study length 157 weeks) 1.13 mg/kg/day; (rat, strain Wistar, males, in drinking water, site: any site (literature study), lesion: several types, types named in the paper, dosed 157 weeks, study length 157 weeks) 9.64 mg/kg/day; (rat, strain Wistar, males, in drinking water, site: liver, lesion: several types, types named in the paper, dosed 157 weeks, study length 157 weeks) 43.7 mg/kg/day. For the same compound, the carcinogen call (mouse, strain Bor:NMRI, SPF-bred NMRI, females, in drinking water, site: any site (literature study), lesion: malignant tumor, dosed 104 weeks, study length 104 weeks) was “negative (inactive)”; the carcinogen call (mouse, strain Bor:NMRI, SPF-bred NMRI, males, in drinking water, site: any site (literature study), lesion: benign tumor, dosed 104 weeks, study length 104 weeks) was “negative (inactive)”; the carcinogen call (mouse, strain Bor:NMRI, SPF-bred NMRI, males, in drinking water, site: any site (literature study), lesion: malignant tumor, dosed 104 weeks, study length 104 weeks) is “negative (inactive)”; the carcinogen call (rat, strain Fischer 344, males, inhaled, site: nasal cavity, lesion: adenocarcinoma, dosed 52 weeks, study length 130 weeks) is “positive”.
Take `C=CCN(CC(O)CO)N=O` (centres undefined): the TD50 (rat, strain Fischer 344, females, in drinking water, site: esophagus, lesion: carcinoma, dosed 50 weeks, study length 55 weeks) is 1.13 mg/kg/day; the TD50 (rat, strain Fischer 344, females, in drinking water, site: esophagus, lesion: several types, types named in the paper, dosed 50 weeks, study length 55 weeks) was 0.825 mg/kg/day; the TD50 (rat, strain Fischer 344, females, in drinking water, site: nasal cavity, lesion: several types, types named in the paper, dosed 50 weeks, study length 55 weeks) is 0.972 mg/kg/day. Further, the carcinogen call (rat, strain Fischer 344, females, in drinking water, site: liver, lesion: neoplastic nodule, dosed 50 weeks, study length 55 weeks) is “negative (inactive)”.
In the case of `CCN(CC)C(=O)c1cccc(C)c1`, the TD50 was 150000 mg/kg/day (inactive) (mouse, strain Charles River CD1, females, in feed, site: liver, lesion: hepatocellular adenoma, dosed 78 weeks, study length 78 weeks); 87000 mg/kg/day (inactive) (mouse, strain Charles River CD1, females, in feed, site: liver, lesion: hepatocellular carcinoma, dosed 78 weeks, study length 78 weeks); 14500 mg/kg/day (inactive) (mouse, strain Charles River CD1, females, in feed, site: lung, lesion: alveolar/bronchiolar adenoma, dosed 78 weeks, study length 78 weeks); 2580 mg/kg/day (inactive) (mouse, strain Charles River CD1, males, in feed, site: liver, lesion: hepatocellular adenoma, dosed 78 weeks, study length 78 weeks); 11500 mg/kg/day (inactive) (mouse, strain Charles River CD1, males, in feed, site: liver, lesion: hepatocellular carcinoma, dosed 78 weeks, study length 78 weeks); 16700 mg/kg/day (inactive) (rat, strain Charles River CD (Sprague-Dawley), females, in feed, site: liver, lesion: hepatocellular adenoma, dosed 104 weeks, study length 104 weeks). For the same compound, the TD50 (rat, strain Charles River CD (Sprague-Dawley), males, in feed, site: liver, lesion: hepatocellular adenoma, dosed 104 weeks, study length 104 weeks) was 3390 mg/kg/day (inactive). Besides, the carcinogen call (mouse, strain Charles River CD1, males, in feed, site: lung, lesion: alveolar/bronchiolar adenoma, dosed 78 weeks, study length 78 weeks) is “negative (inactive)”; the carcinogen call (rat, strain Charles River CD (Sprague-Dawley), females, in feed, site: liver, lesion: hepatocellular carcinoma, dosed 104 weeks, study length 104 weeks) is “negative (inactive)”; the carcinogen call (rat, strain Charles River CD (Sprague-Dawley), males, in feed, site: liver, lesion: hepatocellular carcinoma, dosed 104 weeks, study length 104 weeks) is “negative (inactive)”.
For the compound `NNC(N)=S`, the carcinogen call runs as follows: (mouse, strain Swiss albino, females, in drinking water, site: liver, lesion: hepatoma, dosed 123 weeks, study length 124 weeks) “negative (inactive)”; (mouse, strain Swiss albino, females, in drinking water, site: lung, lesion: one or several types, types not named, dosed 123 weeks, study length 124 weeks) “negative (inactive)”; (mouse, strain Swiss albino, males, in drinking water, site: liver, lesion: hepatoma, dosed 115 weeks, study length 121 weeks) “negative (inactive)”; (mouse, strain Swiss albino, males, in drinking water, site: lung, lesion: one or several types, types not named, dosed 115 weeks, study length 121 weeks) “negative (inactive)”. For the same compound, where the note is “rat, strain Charles River CD (Sprague-Dawley), females, in feed, site: mammary gland, lesion: one or several types, types not named, dosed 78 weeks, study length 104 weeks”, the TD50 worked out at 3.07 mg/kg/day.
`CC(N)=S`: the TD50 (mouse, strain ICR, males, in feed, site: liver, lesion: hepatocellular carcinoma, dosed 40 weeks, study length 88 weeks) was 15.3 mg/kg/day; the TD50 (mouse, strain ICR, males, in feed, site: liver, lesion: hyperplastic nodule, dosed 40 weeks, study length 88 weeks) stood at 12 mg/kg/day; the TD50 (mouse, strain Swiss, females, in feed, site: liver, lesion: hepatoma, dosed 65 weeks, study length 65 weeks) is 5.36 mg/kg/day; the TD50 (rat, strain Donryu, males, in feed, site: liver, lesion: hepatocellular carcinoma, trabecular, dosed 40 weeks, study length 80 weeks) is 21.8 mg/kg/day; the TD50 (rat, strain Donryu, males, in feed, site: liver, lesion: papillary adenocarcinoma, dosed 40 weeks, study length 80 weeks) amounted to 27.6 mg/kg/day; the TD50 (rat, strain Donryu, males, in feed, site: liver, lesion: several types, types named in the paper, dosed 40 weeks, study length 80 weeks) was 11.5 mg/kg/day. Further, the carcinogen call (mouse, strain Swiss, males, in feed, site: liver, lesion: hepatoma, dosed 65 weeks, study length 65 weeks) was “positive”.
